Legend:
[1] = Study SI06004: plasma pharmacokinetics of silodosin and metabolites, 8 mg once daily for 7 days; assay type: in vivo, human; conditions: for Tmax: 8 mg once daily, immediate-release
Procedure: FIG. 2 depicts the mean steady-state silodosin plasma concentration versus time profile in fed target-aged subjects after administering 8 mg silodosin QD (from Study SI06004).
This is illustrated in Table 1 and FIG. 2. Study SI06004 assessed the area under the plasma concentration time curve for silodosin and four of its metabolites, as well as safety and tolerability, following administration of 8 mg once daily for 7 days.

α1A receptor = target: T1, α1A receptor (Homo sapiens, UniProt P35348); conditions: cited from earlier work
T1 sequence (P35348 1-466): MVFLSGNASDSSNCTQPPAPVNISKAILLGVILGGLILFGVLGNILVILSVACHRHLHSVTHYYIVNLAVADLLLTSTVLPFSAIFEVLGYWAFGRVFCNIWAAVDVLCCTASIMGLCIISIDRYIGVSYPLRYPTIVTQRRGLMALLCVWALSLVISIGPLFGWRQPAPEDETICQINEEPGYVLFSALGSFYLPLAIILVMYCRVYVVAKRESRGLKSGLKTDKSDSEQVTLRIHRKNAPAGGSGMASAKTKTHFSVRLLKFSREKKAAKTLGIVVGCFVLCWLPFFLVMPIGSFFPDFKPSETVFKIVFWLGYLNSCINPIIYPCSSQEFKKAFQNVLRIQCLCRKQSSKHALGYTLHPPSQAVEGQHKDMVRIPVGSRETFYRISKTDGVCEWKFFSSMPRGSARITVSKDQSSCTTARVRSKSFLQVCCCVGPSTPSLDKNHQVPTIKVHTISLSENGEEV

men with CP/CPPS [2] = test: 12-week double-blind placebo-controlled Phase II study (NCT00740779): efficacy (NIH-CPSI, SF-12, GRA); assay type: in vivo, human; conditions: for SF-12 mental component, adjusted mean difference versus placebo (95% CI) / SF-12 mental component, change from baseline, mean ± SD / SF-12 physical component, adjusted mean difference versus placebo (95% CI) / SF-12 physical component, change from baseline, mean ± SD: study end, ITT
Procedure: (§1) A 12-week, multicenter, double-blind, placebo-controlled, Phase II study (ClinicalTrials.gov identifier: NCT00740779) was conducted between September 2008 and October 2009. The protocol was approved by an Institutional Review Board before study initiation, and the study was conducted in accordance with the Declaration of Helsinki and the US Code of Federal Regulations. The primary end point was change from baseline to week 12 in the NIH—CPSI total score. Secondary end points included safety; change from baseline in NIH—CPSI pain, urinary, and HRQoL subscores; and change from baseline in SF-12 physical and mental component scores. In addition, responder analyses were conducted for the global response assessment (GRA) and NIH—CPSI at week 12.
Study participants were recruited from 32 centers across the United States, including mostly community-based practices and a few university medical centers. […] Patients were excluded if they had participated in a study of an investigational agent within the past 30 days, had experienced two or more urinary tract infections within the previous 12 months, or had medical conditions potentially precluding safe study participation or affecting study results, such as significant postural hypotension, abnormal test results of digital rectal examinations (except benign prostate enlargement), prostate-specific antigen >10.0 ng/mL, and liver or renal insufficiency. Patients treated with medications that might confound study results, such as α-blockers (for conditions other than CP/CPPS), 5α-reductase inhibitors, tricyclic antidepressants, androgens, and ketoconazole, had to undergo appropriate washout periods to be eligible.
(§2) Patients were randomized 1:1:1 to receive silodosin 4 mg, silodosin 8 mg, or placebo once daily with food at breakfast for 12 weeks. Two doses of silodosin were chosen to evaluate the dose dependency of treatment effects in patients with CP/CPPS. The maximum dose of silodosin 8 mg/d was selected based on its established safety and efficacy profile in patients with BPH.
(§3) Baseline parameters were assessed after a 4-week screening period. All efficacy assessments were made with self-administered patient surveys. Patients completed the NIH—CPSI and subscales, GRA scale, and pain medication usage surveys at baseline and at weeks 4, 8, and 12 of the study. SF-12 was completed at baseline and at study end (week 12 or time of discontinuation). Safety was monitored over the course of the study through adverse events reporting, clinical laboratory tests, and vital signs assessments.
(§4) All efficacy and safety data were summarized using descriptive statistics for continuous variables and frequency distributions for categorical variables. Efficacy end points were analyzed in the intent-to-treat (ITT) population, which consisted of all randomized patients with a baseline assessment for the NIH—CPSI total score. The primary efficacy variable and continuous secondary variables were analyzed for significance at α=0.05 (with Bonferroni correction for multiple comparisons) using analysis of covariance models with the baseline measurement of the efficacy variable as the covariate and effects of treatment. Because of the small number of patients in many participating centers, study center was not included in statistical analysis models. All analyses were conducted with SAS® v8.2 (SAS Institute Inc., Cary, N.C.). Last observation carried forward (LOCF) was used to impute missing values. […] GRA and NIH—CPSI responder analyses were done with chi-square tests at α=0.025 (two-sided) to account for multiple comparisons.

men with CP/CPPS [3] = test: 12-week Phase II study (NCT00740779): safety and tolerability (adverse events); assay type: in vivo, human
Procedure: as §1, §2, §3, §4

[4] = Study SI07004: silodosin pharmacokinetics after seven daily doses of 4 mg or 8 mg in healthy male subjects; assay type: in vivo, human; conditions: after 7 days of dosing; for AUC(0-t) / half-life / Cmax / Tmax: male, human, plasma
Description: FIG. 3 depicts the mean silodosin plasma concentration time profile by dose level and timepoint after multiple doses (from Study SI07004).

patients with CP/CPPS = conditions: 10 mg once daily, versus placebo; cited from earlier work
[5] = 8 mg once daily for 7 days, mean (SD)
[6] = 4 mg, Week 12 ET (early termination counted as nonresponse)

## C[C@H](Cc1cc2c(c(C(N)=O)c1)N(CCC(=O)O)CC2)NCCOc1ccccc1OCC(F)(F)F [compound 3293]
[1]; [5]
  AUC(0-24): 373.0 (141.72) ng * hr/mL
  Cmax: 34.3 (12.58) ng/mL
[1]; mean (SD)
  Tmax: 4.1 (1.29) hr

## C[C@H](Cc1cc2c(c(C(N)=O)c1)N(CCCO)CC2)NCCOc1ccccc1OCC(F)(F)F [silodosin]
[1]; human, plasma, oral, 8 mg, mean (SD), read-out: Tmax
  Tmax: ~2.6 h
[1]; human, plasma, oral, 8 mg once daily for 7 days, mean (SD), read-out: AUC(0-24)
  AUC(0-t): 373 ng·h/mL
[1]; human, plasma, oral, 8 mg once daily for 7 days, mean (SD), read-out: Cmax
  Cmax: 61.6 ng/mL
[1]; human, plasma, oral, 8 mg once daily for 7 days, mean ± SD
  half-life: 13.3 h
α1A receptor
  Selectivity for the α1A receptor relative to α1B and α1D receptors: high selectivity
Men with CP/CPPS [2]; 4 mg once daily
  SF-12 mental component, adjusted mean difference versus placebo (95% CI): 1.5 (−1.9, 4.9)
  SF-12 mental component, change from baseline, mean ± SD: 3.2 ± 7.3
  SF-12 physical component, adjusted mean difference versus placebo (95% CI): 3.0 (0.01, 6.0)
  SF-12 physical component, change from baseline, mean ± SD: 4.2±8.1
Men with CP/CPPS [2]; 4 mg once daily, week 12, ITT
  NIH-CPSI pain score, adjusted mean difference versus placebo (95% CI): −1.6 (−3.4, 0.3)
  NIH-CPSI pain score, change from baseline, mean ± SD: −5.9 ± 4.5
  NIH-CPSI quality-of-life impact score, adjusted mean difference versus placebo (95% CI): −1.5 (−2.8, −0.3)
  NIH-CPSI quality-of-life impact score, change from baseline, mean ± SD: −4.1 ± 3.1
  NIH-CPSI total score, change from baseline, mean ± SD: −12.1±9.3
  NIH-CPSI urinary symptoms score, adjusted mean difference versus placebo (95% CI): −1.4 (−2.5, −0.3)
  NIH-CPSI urinary symptoms score, change from baseline, mean ± SD: −2.2 ± 2.7
Men with CP/CPPS [2]; [6]
  GRA responders, patients: 55.8%
  NIH-CPSI responders, patients: 59.6%
Men with CP/CPPS [2]; 8 mg once daily
  SF-12 mental component, adjusted mean difference versus placebo (95% CI): −1.4 (−4.9, 2.1)
  SF-12 mental component, change from baseline, mean ± SD: 0.5 ± 7.2
  SF-12 physical component, adjusted mean difference versus placebo (95% CI): 2.7 (−0.4, 5.8)
  SF-12 physical component, change from baseline, mean ± SD: 4.4 ± 7.0
Men with CP/CPPS [2]; 8 mg once daily, week 12, ITT
  NIH-CPSI pain score, adjusted mean difference versus placebo (95% CI): −0.5 (−2.4, 1.4)
  NIH-CPSI pain score, change from baseline, mean ± SD: −4.9 ± 5.0
  NIH-CPSI quality-of-life impact score, adjusted mean difference versus placebo (95% CI): −0.7 (−2.0, 0.5)
  NIH-CPSI quality-of-life impact score, change from baseline, mean ± SD: −3.5 ± 3.0
  NIH-CPSI urinary symptoms score, adjusted mean difference versus placebo (95% CI): −0.8 (−1.9, 0.3)
  NIH-CPSI urinary symptoms score, change from baseline, mean ± SD: −1.8 ± 2.4
Men with CP/CPPS [2]; 8 mg, Week 12 ET (early termination counted as nonresponse)
  NIH-CPSI responders, patients: 46.7%
Men with CP/CPPS [3]; 4 mg
  Drug-related adverse events leading to discontinuation, all: 3 n
  Drug-related adverse events leading to discontinuation: RE/libido decreased: 1 n
  Drug-related adverse events leading to discontinuation: ejaculation failure: 1 n
  Drug-related adverse events leading to discontinuation: rash: 1 n
  Patients who discontinued study participation because of a drug-related adverse event: 5.8%
Men with CP/CPPS [3]; 4 mg, safety population (n = 52)
  Drug-related adverse event: Headache, patients: 0 n
Men with CP/CPPS [3]; 4 mg, not considered drug-related by the investigator (severe urosepsis; moderate syncope)
  Patients who experienced serious adverse events: Two
Men with CP/CPPS [3]; 8 mg
  Drug-related adverse events leading to discontinuation, all: 6 n
  Drug-related adverse events leading to discontinuation: RE: 4 n
  Drug-related adverse events leading to discontinuation: nasal congestion: 2 n
  Patients who discontinued study participation because of a drug-related adverse event: 13.3%
[4]; 4 mg
  kel, median: 0.0489 h⁻¹
[4]; 4 mg, n 19
  kel, mean: 0.0552 h⁻¹
[4]; 8 mg
  kel, median: 0.0573 h⁻¹
[4]; 8 mg, n 21
  kel, mean: 0.0551 h⁻¹
[4]; 4 mg, N = 22, read-out: AUC [0-24], mean
  AUC(0-t): 159 ng·h/mL
[4]; 4 mg, n 19, read-out: t½, mean (converted)
  half-life: 15.3 h
[4]; 4 mg, read-out: AUC [0-24], median
  AUC(0-t): 156 ng·h/mL
[4]; 4 mg, read-out: Cmax, mean
  Cmax: 28.4 ng/mL
[4]; 4 mg, read-out: Cmax, median
  Cmax: 26.1 ng/mL
[4]; 4 mg, read-out: Tmax, mean
  Tmax: 2.4 h
[4]; 4 mg, read-out: Tmax, median
  Tmax: 2 h
[4]; 4 mg, read-out: t½, median (converted)
  half-life: 14.2 h
[4]; 8 mg, N = 22, read-out: AUC [0-24], mean
  AUC(0-t): 297 ng·h/mL
[4]; 8 mg, n 21, read-out: t½, mean (converted)
  half-life: 14.4 h
[4]; 8 mg, read-out: AUC [0-24], median
  AUC(0-t): 276 ng·h/mL
[4]; 8 mg, read-out: Cmax, mean
  Cmax: 51.1 ng/mL
[4]; 8 mg, read-out: Cmax, median
  Cmax: 50.3 ng/mL
[4]; 8 mg, read-out: Tmax, mean
  Tmax: 2.5 h
[4]; 8 mg, read-out: Tmax, median
  Tmax: 2 h
[4]; 8 mg, read-out: t½, median (converted)
  half-life: 12.1 h

## C[C@H](Cc1cc2c(c(C(N)=O)c1)N(CCCO[C@@H]1O[C@H](C(=O)O)[C@@H](O)[C@H](O)[C@H]1O)CC2)NCCOc1ccccc1OCC(F)(F)F [3213G]
[1]; [5]
  AUC(0-24): 1660.5 (647.23) ng * hr/mL
  Cmax: 102.4 (36.51) ng/mL
[1]; mean (SD)
  Tmax: 5.5 (2.29) hr

## COc1cc2nc(N(C)CCCNC(=O)C3CCCO3)nc(N)c2cc1OC (stereo not shown) [alfuzosin]
Patients with CP/CPPS
  Reducing the symptoms of CP/CPPS: not more effective than placebo

— US20120184591A1, “METHODS FOR TREATING PROSTATITIS” (WATSON PHARMACEUTICALS, INC., priority 2011, published 2012)
